Results on 16 compounds are retold here after patent US8592486B2, “Compounds for inflammation and immune-related uses” (Synta Pharmaceuticals Corp., priority 2005, dated 2013).

The test system of the first test is IL-2 production. In words: Inhibition of IL-2 production in PHA-activated Jurkat cells (ELISA). The test is classed as cell-based, human. The settings on record: Homo sapiens, Jurkat, 20 h, Jurkat cells, PHA 2.5 μg/mL, 20 hours, IL-2 ELISA; read-out: IC50 (inhibition of IL-2 production). As to the method:
Jurkat cells were placed in a 96 well plate (0.5 million cells per well in 1% FBS medium) then a test compound of this invention was added at different concentrations. After 10 minutes, the cells were activated with PHA (final concentration 2.5 μg/mL) and incubated for 20 hours at 37° C. under CO2. The final volume was 200 μL. Following incubation, the cells were centrifuged and the supernatants collected and stored at −70° C. prior to assaying for IL-2 production. A commercial ELISA kit (IL-2 Eli-pair, Diaclone Research, Besancon, France) was used to detect production of IL-2, from which dose response curves were obtained. The IC50 value was calculated as the concentration at which 50% of maximum IL-2 production after stimulation was inhibited versus a non-stimulation control.
For `O=C(Nc1ccc(-c2cc(-c3ncco3)ccc2Cl)cc1)c1c(F)cncc1F` [Compound 45, 3,5-Difluoro-N-[5′-(oxazol-2-yl)-2′-chloro-biphenyl-4-yl]-isonicotinamide], the IC50 amounted to 50 nM.

Take `Cc1ccc(-c2cccnc2)cc1-c1ccc(NC(=O)c2c(F)cccc2F)cc1` [Compound 22, 2,6-Difluoro-N-[2′-methyl-5′-(pyridine-3-yl)-biphenyl-4-yl]-benzamide]: the 50% inhibitory concentration (IC50) was 1 nM. On the same count and under the same terms, under `Cc1cc(-c2ccc(C)c(-c3ccc(NC(=O)c4ccncc4C)cc3)c2)on1` [Compound 36, 3-Methyl-N-[5′-(3-methyl-isoxazol-5-yl)-2′-methyl-biphenyl-4-yl]-isonicotinamide] stands 4 nM. On the same count and under the same terms, under `Cc1cnccc1C(=O)Nc1ccc(-c2cc(-c3cnco3)ccc2C)cc1` [Compound 26, 3-Methyl-N-[5′-(oxazol-5-yl)-2′-methyl-biphenyl-4-yl]-isonicotinamide] stands 5 nM; under `Cc1ccc(-c2nccs2)cc1-c1ccc(NC(=O)c2snnc2C)cc1` [Compound 76, 4-Methyl-[1,2,3]thiadazole-5-carboxylic acid [2′-methyl-5′-(thiazol-2-yl)-biphenyl-4-yl]-amide], 7 nM; under `Cc1cnccc1C(=O)Nc1ccc(-c2cc(-c3nncs3)ccc2C)cc1` [Compound 60, 3-Methyl-N-[5′-([1,3,4]thiadiazol-2-yl)-2′-methyl-biphenyl-4-yl]-isonicotinamide], 13 nM. Still for that read-out and setting: the same measure for `Cc1ccc(-c2ncnn2C)cc1-c1ccc(NC(=O)c2c(F)cccc2F)cc1` [Compound 66, 2,6-Difluoro-N-[2′-methyl-5′-(2-methyl-2H-[1,2,4]triazol-3-yl)-biphenyl-4-yl]-benzamide]: 8 nM; for `Cc1ccc(-c2cocn2)cc1-c1ccc(NC(=O)c2c(F)cccc2F)cc1` [Compound 77, 2,6-Difluoro-N-[2′-methyl-5′-(oxazol-4-yl)-biphenyl-4-yl]-benzamide]: 10 nM; for `Cc1cnccc1C(=O)Nc1ccc(-c2cc(-c3ccno3)ccc2C)cc1` [Compound 32, 3-Methyl-N-[5′-(isoxazol-5-yl)-2′-methyl-biphenyl-4-yl]-isonicotinamide]: 4 nM. As for `Cc1ccc(-c2nncs2)cc1-c1ccc(NC(=O)c2c(F)cncc2F)cc1` [Compound 53, 3,5-Difluoro-N-[5′-([1,3,4]thiadiazol-2-yl)-2′-methyl-biphenyl-4-yl]-isonicotinamide], the IC50 came out at 6 nM. `COc1ncc(Cl)cc1-c1ccc(NC(=O)c2ccncc2C)cc1` [Compound 18, 3-Methyl-N-[4-(5-chloro-2-methoxy-pyridin-3-yl)-phenyl]-isonicotinamide]: the IC50 worked out at 9 nM. Same read-out and setting: the same measure for `COc1ccc(-c2cccs2)cc1-c1ccc(NC(=O)c2ccncc2C)cc1` [Compound 52, 3-Methyl-N-[5′-(thien-2-yl)-2′-methoxy-biphenyl-4-yl]-isonicotinamide]: 35 nM.

In the case of `Cc1csc(-c2ccc(C)c(-c3ccc(NC(=O)c4ccncc4C)cc3)c2)n1` [Compound 40, 3-Methyl-N-[5′-(4-methyl-thiazol-2-yl)-2′-methyl-biphenyl-4-yl]-isonicotinamide], the half-inhibitory concentration (IC50) worked out at 11 nM. Same read-out and setting: the same measure for `Cc1ccc(N2CCOCC2)cc1-c1ccc(NC(=O)c2c(F)cccc2F)cc1` [Compound 43, 2,6-Difluoro-N-[2′-methyl-5′-(morpholino-4-yl)-biphenyl-4-yl]-benzamide]: 26 nM; for `Cc1ccc(-c2nnco2)cc1-c1ccc(NC(=O)c2ccncc2F)cc1` [Compound 71, 3-Fluoro-N-[2′-methyl-5′-([1,3,4]oxadiazol-2-yl)-biphenyl-4-yl]-isonicotinamide]: 6 nM.

Still in this test, the particulars now being: Jurkat cells, PHA 2.5 μg/mL, 20 hours, IL-2 ELISA; read-out: IC50 (inhibition of IL-2 production).
Consider `Cc1cnccc1C(=O)Nc1ccc(-c2cc(-c3nccs3)ccc2C)cc1` [Compound 14, 3-Methyl-N-(2′-methyl-5′-thiazol-2-yl-biphenyl-4-yl)-isonicotin-amide], for which the concentration for half-maximal inhibition (IC50) was determined as 10 nM.
